Data reported in ChEMBL document CHEMBL1800045, “Eudistomidins H-K, new β-carboline alkaloids from the Okinawan marine tunicate Eudistoma glaucus” (Bioorg Med Chem Lett, 2011).
Values after ≈ are worked out from the molar mass of the structure shown.

Legend:
Type in all cases: functional, cell-based
L1210 = assay: Cytotoxicity against mouse L1210 cells
P388 = assay: Cytotoxicity against mouse P388 cells
KB = assay: Cytotoxicity against human KB cells

## CN[C@H](CSC)c1nccc2c1[nH]c1ccc(O)c(Br)c12 [EUDISTOMIDIN C]
L1210
  IC50: 0.36 µg/mL (≈ 0.983 µM)

## CN1Cn2c3c(c4ccc(Br)cc42)CCN(C)[C@@H]3[C@@H]1Cc1ccccc1 [EUDISTOMIDIN H]
P388
  IC50: > 10 µg/mL
L1210
  IC50: > 10 µg/mL
KB
  IC50: > 10 µg/mL

## CN1Cn2c3c(c4cc(Br)ccc42)CCN(C)[C@@H]3[C@@H]1Cc1ccccc1 [EUDISTOMIDIN I]
P388
  IC50: > 10 µg/mL
L1210
  IC50: > 10 µg/mL
KB
  IC50: > 10 µg/mL

## CN[C@H](C[S+](C)[O-])c1nccc2c1[nH]c1ccc(O)c(Br)c12 (stereo partly drawn) [EUDISTOMIDIN J]
P388
  IC50: 0.043 µg/mL (≈ 0.112 µM)
L1210
  IC50: 0.047 µg/mL (≈ 0.123 µM)
KB
  IC50: 0.063 µg/mL (≈ 0.165 µM)

## CC(=O)c1nccc2c1[nH]c1ccc(O)c(Br)c12 [EUDISTOMIDIN K]
P388
  IC50: > 10 µg/mL
L1210
  IC50: > 10 µg/mL
KB
  IC50: > 10 µg/mL
